Experimental data as given in article PMC6072100, “Exploring the links between peptoid antibacterial activity and toxicity” (MedChemComm, 2017).
Where two headings read alike, the source gives them in different places. Square brackets hold non-standard residues; d marks the D form. Peptide text beside a SMILES is read from it. N(4-F-Bzl)Gly = O=C(O)CNCc1ccc(F)cc1; Gly(N-2-aminoethyl) = NCCNCC(=O)O; Nspe = C[C@H](NCC(=O)O)c1ccccc1; NhArg = N=C(N)NCCCCNCC(=O)O; NPentylGly = CCCCCNCC(=O)O; Nphe = O=C(O)CNCc1ccccc1; Nlys = NCCCCNCC(=O)O

Experiments:
Format in all cases: cell-based
[1] = tested on: Staphylococcus epidermidis (laboratory strain from clinical isolate); settings: 16 h
Procedure, shortened: (§1)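 Broth microdilution MIC in Iso-sensitest broth; inoculum adjusted to A650 0.07 (0.5 McFarland) then diluted ten-fold. Peptoids from DMSO stock at final 2–100 μM (2-fold series), 37 °C for 16 h with shaking; growth read by absorbance, triplicate, ampicillin and DMSO controls.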

[2] = tested on: Escherichia coli K-12 wild-type strain (W3110/ATCC27325); settings: for MIC E. coli: lowest concentration completely inhibiting growth, 37 °C, 16 h, range 2–100 μM
Procedure, shortened: as §1

[3] = tested on: Pseudomonas aeruginosa PA01 (ATCC 15692)
Procedure, shortened: as §1

[4] = tested on: Staphylococcus aureus (3R7089 strain Oxford/ATCC9144)
Procedure, shortened: as §1

[5] = lowest concentration completely inhibiting growth, 37 °C, range 2–100 μM
[6] = lowest concentration completely inhibiting growth, 37 °C, 16 h, range 2–100 μM
[7] = laboratory strain from clinical isolate

| Molecule | MIC S. epidermidis [1, 5] [µM] | MIC E. coli [2] [µM] | MIC P. aeruginosa [3, 6] [µM] | MIC S. aureus [4, 6] [µM] | activity against E. coli (in words) [2] | activity against P. aeruginosa (in words) [3] | MIC P. aeruginosa ([3]; ATCC 15692, 16 h) [µM] | MIC S. epidermidis [1, 7] [µM] | MIC S. aureus ([4]; ATCC9144, 16 h) [µM] |
| --- | --- | --- | --- | --- | --- | --- | --- | --- | --- |
| NCCCCNCC(=O)N(CC(=O)N(CC(=O)N(CCCCN)CC(=O)N(CC(=O)N(CC(=O)N(CCCCN)CC(=O)N(CC(=O)N(CC(N)=O)Cc1ccc(F)cc1)Cc1ccc(F)cc1)Cc1ccc(F)cc1)Cc1ccc(F)cc1)Cc1ccc(F)cc1)Cc1ccc(F)cc1 [Peptoid 23, (NLysNpfbNpfb)3] (H-[Nlys][N(4-F-Bzl)Gly][N(4-F-Bzl)Gly][Nlys][N(4-F-Bzl)Gly][N(4-F-Bzl)Gly][Nlys][N(4-F-Bzl)Gly][N(4-F-Bzl)Gly]-NH2) | 3 | 13 | 25 | 3 |  |  |  |  |  |
| CCCCCNCC(=O)N(CC(=O)N(CC(=O)N(CCCCNC(=N)N)CC(=O)N(CC(=O)N(CC(=O)N(CCCCC)CC(=O)N(CC(=O)N(CC(=O)N(CCCCNC(=N)N)CC(=O)N(CC(=O)N(CC(N)=O)[C@@H](C)c1ccccc1)[C@@H](C)c1ccccc1)[C@@H](C)c1ccccc1)[C@@H](C)c1ccccc1)[C@@H](C)c1ccccc1)[C@@H](C)c1ccccc1)[C@@H](C)c1ccccc1)[C@@H](C)c1ccccc1 [Peptoid 40, [(NamyNspeNspe)(NhArgNspeNspe)]2] (H-[NPentylGly][Nspe][Nspe][NhArg][Nspe][Nspe][NPentylGly][Nspe][Nspe][NhArg][Nspe][Nspe]-NH2) | 6 | >100 | 100 | 3 | not active | not active | >100 |  |  |
| C[C@@H](c1ccccc1)N(CC(N)=O)C(=O)CN(Cc1ccc(F)cc1)C(=O)CN(CCCCN)C(=O)CN(C(=O)CN(Cc1ccc(F)cc1)C(=O)CN(CCCCN)C(=O)CN(C(=O)CN(Cc1ccc(F)cc1)C(=O)CNCCCCN)[C@@H](C)c1ccccc1)[C@@H](C)c1ccccc1 [Peptoid 27, (NLysNpfbNspe)3] | 2 | 25 | 25 | 3 |  |  |  |  |  |
| CCCCCN(CC(=O)N(CC(=O)N(CC(=O)N(CCCCN)CC(=O)N(CC(=O)N(CC(N)=O)[C@@H](C)c1ccccc1)[C@@H](C)c1ccccc1)[C@@H](C)c1ccccc1)[C@@H](C)c1ccccc1)C(=O)CN(C(=O)CN(C(=O)CN(CCCCN)C(=O)CN(C(=O)CN(C(=O)CNCCCCN)[C@@H](C)c1ccccc1)[C@@H](C)c1ccccc1)[C@@H](C)c1ccccc1)[C@@H](C)c1ccccc1 [Peptoid 32, (NLysNspeNspe)2(NamyNspeNspe)(NLysNspeNspe)] | 2 | >100 | 100 | 6 |  |  | >100 |  |  |
| C[C@@H](c1ccccc1)N(CC(N)=O)C(=O)CN(C(=O)CN(CCCCNC(=N)N)C(=O)CN(C(=O)CN(C(=O)CN(CCCCNC(=N)N)C(=O)CN(C(=O)CN(C(=O)CN(CCCCNC(=N)N)C(=O)CN(C(=O)CN(C(=O)CNCCCCNC(=N)N)[C@@H](C)c1ccccc1)[C@@H](C)c1ccccc1)[C@@H](C)c1ccccc1)[C@@H](C)c1ccccc1)[C@@H](C)c1ccccc1)[C@@H](C)c1ccccc1)[C@@H](C)c1ccccc1 [Peptoid 34, (NhArgNspeNspe)4] (H-[NhArg][Nspe][Nspe][NhArg][Nspe][Nspe][NhArg][Nspe][Nspe][NhArg][Nspe][Nspe]-NH2) | 1 | 6 | 13 | 1 |  |  |  |  |  |
| NCCNCC(=O)N(CC(=O)N(CC(=O)N(CCN)CC(=O)N(CC(=O)N(CC(N)=O)Cc1ccccc1)Cc1ccccc1)Cc1ccccc1)Cc1ccccc1 [Peptoid 9, (NaeNpheNphe)2] (H-[Gly(N-2-aminoethyl)][Nphe][Nphe][Gly(N-2-aminoethyl)][Nphe][Nphe]-NH2) | 100 | >100 | 100 | 100 |  |  | >100 | >100 | >100 |
| NCCNCC(=O)N(CC(=O)N(CC(=O)N(CCN)CC(=O)N(CC(=O)N(CC(=O)N(CCN)CC(=O)N(CC(=O)N(CC(=O)N(CCN)CC(=O)N(CC(=O)N(CC(N)=O)Cc1ccccc1)Cc1ccccc1)Cc1ccccc1)Cc1ccccc1)Cc1ccccc1)Cc1ccccc1)Cc1ccccc1)Cc1ccccc1 [Peptoid 7, (NaeNpheNphe)4] (H-[Gly(N-2-aminoethyl)][Nphe][Nphe][Gly(N-2-aminoethyl)][Nphe][Nphe][Gly(N-2-aminoethyl)][Nphe][Nphe][Gly(N-2-aminoethyl)][Nphe][Nphe]-NH2) | 6 | 13 | 50 | 2 |  |  |  |  |  |
| NCCCCNCC(=O)N(CC(=O)N(CC(=O)N(CCCCN)CC(=O)N(CC(=O)N(CC(=O)N(CCCCN)CC(=O)N(CC(=O)N(CC(=O)N(CCCCN)CC(=O)N(CC(=O)N(CC(N)=O)Cc1cccc(F)c1)Cc1cccc(F)c1)Cc1cccc(F)c1)Cc1cccc(F)c1)Cc1cccc(F)c1)Cc1cccc(F)c1)Cc1cccc(F)c1)Cc1cccc(F)c1 [Peptoid 24, (NLysNmfbNmfb)4] | 3 | 25 | 25 | 6 |  |  |  |  |  |
| COc1ccc(CN(CC(N)=O)C(=O)CN(Cc2ccc(OC)cc2)C(=O)CN(CCCCN)C(=O)CN(Cc2ccc(OC)cc2)C(=O)CN(Cc2ccc(OC)cc2)C(=O)CN(CCCCN)C(=O)CN(Cc2ccc(OC)cc2)C(=O)CN(Cc2ccc(OC)cc2)C(=O)CN(CCCCN)C(=O)CN(Cc2ccc(OC)cc2)C(=O)CN(Cc2ccc(OC)cc2)C(=O)CNCCCCN)cc1 [Peptoid 19, (NLysNpmbNpmb)4] | 2 | >100 | 100 | 3 | negligible effect | negligible effect | >100 |  |  |
| CCCCCNCC(=O)N(CC(=O)N(CC(=O)N(CCCCC)CC(=O)N(CC(=O)N(CC(=O)N(CCCCN)CC(=O)N(CC(=O)N(CC(=O)N(CCCCN)CC(=O)N(CC(=O)N(CC(N)=O)[C@@H](C)c1ccccc1)[C@@H](C)c1ccccc1)[C@@H](C)c1ccccc1)[C@@H](C)c1ccccc1)[C@@H](C)c1ccccc1)[C@@H](C)c1ccccc1)[C@@H](C)c1ccccc1)[C@@H](C)c1ccccc1 [Peptoid 31, (NamyNspeNspe)2(NLysNspeNspe)2] | 1 | >100 | 100 | 2 |  |  | >100 |  |  |
| NCCNCC(=O)N(CC(=O)N(CC(=O)N(CCN)CC(=O)N(CC(=O)N(CC(=O)N(CCN)CC(=O)N(CC(=O)N(CC(N)=O)Cc1ccccc1)Cc1ccccc1)Cc1ccccc1)Cc1ccccc1)Cc1ccccc1)Cc1ccccc1 [Peptoid 8, (NaeNpheNphe)3] (H-[Gly(N-2-aminoethyl)][Nphe][Nphe][Gly(N-2-aminoethyl)][Nphe][Nphe][Gly(N-2-aminoethyl)][Nphe][Nphe]-NH2) | 100 | >100 | 100 | 13 |  |  | >100 | >100 |  |
| (NhArgNmfbNmfb)4 [Peptoid 36] | 2 | 13 | 13 | 2 |  |  |  |  |  |
